The record followed here is article doi:10.1101/2023.03.24.534094v2 (biorxiv, 2023).

Where two headings read alike, the source gives them in different places.

The target of one assay is ABL1 (Homo sapiens, UniProt P00519). Put plainly: NanoBRET target engagement. Type of assay: cell-based.
Another assay has as its target EpHA5 (Homo sapiens, UniProt P54756). Put plainly: NanoBRET target engagement. The assay is classed as cell-based.
For the next assay, the target named is T1, EpHA1 (Homo sapiens, UniProt P21709).
T1 sequence (P21709 26-976): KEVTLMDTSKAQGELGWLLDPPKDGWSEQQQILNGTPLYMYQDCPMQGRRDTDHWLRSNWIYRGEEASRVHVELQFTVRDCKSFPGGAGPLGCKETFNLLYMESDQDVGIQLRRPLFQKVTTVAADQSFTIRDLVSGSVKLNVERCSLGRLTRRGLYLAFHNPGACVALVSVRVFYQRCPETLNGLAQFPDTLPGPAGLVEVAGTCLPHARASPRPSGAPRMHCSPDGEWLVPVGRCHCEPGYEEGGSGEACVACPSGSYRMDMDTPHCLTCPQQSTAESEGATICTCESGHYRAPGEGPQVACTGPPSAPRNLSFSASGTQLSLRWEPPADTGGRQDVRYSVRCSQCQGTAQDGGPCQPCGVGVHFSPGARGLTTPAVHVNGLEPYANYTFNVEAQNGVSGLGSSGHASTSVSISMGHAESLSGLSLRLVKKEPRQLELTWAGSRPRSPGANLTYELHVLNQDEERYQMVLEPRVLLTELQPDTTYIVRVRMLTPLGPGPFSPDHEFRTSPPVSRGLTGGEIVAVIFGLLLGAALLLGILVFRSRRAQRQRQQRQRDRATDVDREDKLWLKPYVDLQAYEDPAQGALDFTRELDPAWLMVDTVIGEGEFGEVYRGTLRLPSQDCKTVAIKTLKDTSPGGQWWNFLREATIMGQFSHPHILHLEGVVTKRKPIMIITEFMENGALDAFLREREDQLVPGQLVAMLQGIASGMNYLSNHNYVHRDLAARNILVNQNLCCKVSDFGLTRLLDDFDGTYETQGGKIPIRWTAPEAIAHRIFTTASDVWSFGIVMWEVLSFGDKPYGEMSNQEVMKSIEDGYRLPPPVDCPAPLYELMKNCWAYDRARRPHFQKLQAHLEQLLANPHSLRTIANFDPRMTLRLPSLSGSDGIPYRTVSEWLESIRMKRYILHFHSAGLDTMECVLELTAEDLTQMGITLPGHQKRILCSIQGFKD
The assay is described as follows: NanoBRET target engagement. Type of assay: cell-based.

The next assay concerns the target EpHA2 (Homo sapiens, UniProt P29317). The assay is described as follows: NanoBRET target engagement. The assay is classed as cell-based.
A further assay has as its target EpHB3 (Homo sapiens, UniProt P54753). Put plainly: NanoBRET target engagement. Type of assay: cell-based.
In another assay the target is T2, EpHB1 (Homo sapiens, UniProt P54762).
T2 sequence (P54762 18-984): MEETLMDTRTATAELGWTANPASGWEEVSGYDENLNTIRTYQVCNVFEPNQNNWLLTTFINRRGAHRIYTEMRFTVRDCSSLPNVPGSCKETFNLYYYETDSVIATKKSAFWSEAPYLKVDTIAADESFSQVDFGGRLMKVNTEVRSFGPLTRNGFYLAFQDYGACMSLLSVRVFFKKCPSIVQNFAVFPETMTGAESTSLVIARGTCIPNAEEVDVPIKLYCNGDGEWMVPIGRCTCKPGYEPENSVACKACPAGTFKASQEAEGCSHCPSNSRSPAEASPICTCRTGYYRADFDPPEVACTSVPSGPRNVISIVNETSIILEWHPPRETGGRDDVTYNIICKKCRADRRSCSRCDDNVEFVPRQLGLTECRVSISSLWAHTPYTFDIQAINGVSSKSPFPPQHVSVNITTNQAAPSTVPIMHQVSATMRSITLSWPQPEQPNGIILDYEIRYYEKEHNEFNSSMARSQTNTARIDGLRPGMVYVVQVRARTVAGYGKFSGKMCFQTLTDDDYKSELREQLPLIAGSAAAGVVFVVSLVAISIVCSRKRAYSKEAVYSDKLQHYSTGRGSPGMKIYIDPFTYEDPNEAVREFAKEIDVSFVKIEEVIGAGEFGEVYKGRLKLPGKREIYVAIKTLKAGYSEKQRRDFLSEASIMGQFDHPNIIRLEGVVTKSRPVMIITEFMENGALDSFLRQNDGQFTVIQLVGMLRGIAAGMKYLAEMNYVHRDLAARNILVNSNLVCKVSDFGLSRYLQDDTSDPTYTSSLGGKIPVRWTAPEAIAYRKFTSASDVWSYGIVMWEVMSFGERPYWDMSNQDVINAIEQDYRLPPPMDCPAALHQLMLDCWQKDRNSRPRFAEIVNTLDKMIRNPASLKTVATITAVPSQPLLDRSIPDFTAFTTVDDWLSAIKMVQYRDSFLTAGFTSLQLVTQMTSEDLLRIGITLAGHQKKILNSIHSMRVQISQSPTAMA
The assay is described as follows: NanoBRET target engagement. Type of assay: cell-based.

In a further assay the target is EpHB2 (Homo sapiens, UniProt P29323). Put plainly: NanoBRET target engagement. Type of assay: cell-based.
In a further assay the target is EpHA3 (Homo sapiens, UniProt P29320). Put plainly: NanoBRET target engagement. Type of assay: cell-based.
Chain of EpHA3 (P29320 21-983): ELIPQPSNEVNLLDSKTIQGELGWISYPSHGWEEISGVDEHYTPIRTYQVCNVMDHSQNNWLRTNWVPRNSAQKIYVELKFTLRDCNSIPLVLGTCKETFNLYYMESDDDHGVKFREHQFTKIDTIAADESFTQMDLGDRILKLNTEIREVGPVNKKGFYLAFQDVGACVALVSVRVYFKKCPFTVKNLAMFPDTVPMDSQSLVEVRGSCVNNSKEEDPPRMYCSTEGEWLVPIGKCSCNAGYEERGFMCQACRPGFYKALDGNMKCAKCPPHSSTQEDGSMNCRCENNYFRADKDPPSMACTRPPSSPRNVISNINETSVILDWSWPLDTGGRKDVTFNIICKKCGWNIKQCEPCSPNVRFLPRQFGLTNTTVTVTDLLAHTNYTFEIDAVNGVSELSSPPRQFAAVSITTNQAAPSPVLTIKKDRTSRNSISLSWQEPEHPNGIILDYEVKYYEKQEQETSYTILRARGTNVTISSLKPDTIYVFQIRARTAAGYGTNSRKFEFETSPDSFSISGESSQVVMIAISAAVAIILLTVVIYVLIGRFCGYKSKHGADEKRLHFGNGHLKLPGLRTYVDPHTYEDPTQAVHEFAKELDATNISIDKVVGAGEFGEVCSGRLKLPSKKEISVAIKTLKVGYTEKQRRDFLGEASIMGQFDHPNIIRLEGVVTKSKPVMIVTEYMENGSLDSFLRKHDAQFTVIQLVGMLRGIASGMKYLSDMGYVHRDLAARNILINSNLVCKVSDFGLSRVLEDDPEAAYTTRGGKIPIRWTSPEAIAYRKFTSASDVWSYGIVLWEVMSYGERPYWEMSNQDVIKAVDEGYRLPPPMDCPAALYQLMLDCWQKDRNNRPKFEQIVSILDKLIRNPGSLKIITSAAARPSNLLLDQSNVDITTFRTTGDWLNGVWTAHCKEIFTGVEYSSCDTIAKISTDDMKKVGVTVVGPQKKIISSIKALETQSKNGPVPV
In another assay the target is EpHA4 (Homo sapiens, UniProt P54764). The assay is described as follows: NanoBRET target engagement. Type of assay: cell-based.
Chain of EpHA4 (P54764 20-986): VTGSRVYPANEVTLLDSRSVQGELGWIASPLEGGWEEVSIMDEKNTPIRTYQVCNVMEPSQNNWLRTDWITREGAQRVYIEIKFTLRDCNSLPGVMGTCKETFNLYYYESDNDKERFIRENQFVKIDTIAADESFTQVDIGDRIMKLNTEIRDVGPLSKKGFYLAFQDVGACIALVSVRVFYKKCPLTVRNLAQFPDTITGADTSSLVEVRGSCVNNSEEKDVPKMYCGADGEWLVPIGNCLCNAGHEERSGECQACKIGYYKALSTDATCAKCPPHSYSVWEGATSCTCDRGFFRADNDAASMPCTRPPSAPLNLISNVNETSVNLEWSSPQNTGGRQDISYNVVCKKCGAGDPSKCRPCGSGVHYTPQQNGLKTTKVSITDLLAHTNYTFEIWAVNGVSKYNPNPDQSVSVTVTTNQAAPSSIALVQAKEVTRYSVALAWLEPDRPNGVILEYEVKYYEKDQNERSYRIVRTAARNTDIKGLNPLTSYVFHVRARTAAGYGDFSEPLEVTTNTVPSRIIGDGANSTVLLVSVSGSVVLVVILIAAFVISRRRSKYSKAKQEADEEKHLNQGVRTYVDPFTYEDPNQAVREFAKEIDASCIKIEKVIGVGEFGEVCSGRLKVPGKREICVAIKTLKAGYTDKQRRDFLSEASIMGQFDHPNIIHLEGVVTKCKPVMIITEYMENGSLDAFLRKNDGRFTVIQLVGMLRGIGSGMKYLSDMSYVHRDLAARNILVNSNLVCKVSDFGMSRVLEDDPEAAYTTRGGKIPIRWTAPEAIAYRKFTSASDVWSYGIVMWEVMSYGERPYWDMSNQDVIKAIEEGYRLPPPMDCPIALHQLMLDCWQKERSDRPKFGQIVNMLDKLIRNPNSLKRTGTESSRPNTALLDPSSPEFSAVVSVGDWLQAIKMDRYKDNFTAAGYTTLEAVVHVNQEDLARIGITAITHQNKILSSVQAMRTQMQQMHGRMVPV
In another assay the target is MSSK1 (Homo sapiens, UniProt Q9UPE1). Put plainly: biochemical.
Chain of MSSK1 (Q9UPE1 whole entry): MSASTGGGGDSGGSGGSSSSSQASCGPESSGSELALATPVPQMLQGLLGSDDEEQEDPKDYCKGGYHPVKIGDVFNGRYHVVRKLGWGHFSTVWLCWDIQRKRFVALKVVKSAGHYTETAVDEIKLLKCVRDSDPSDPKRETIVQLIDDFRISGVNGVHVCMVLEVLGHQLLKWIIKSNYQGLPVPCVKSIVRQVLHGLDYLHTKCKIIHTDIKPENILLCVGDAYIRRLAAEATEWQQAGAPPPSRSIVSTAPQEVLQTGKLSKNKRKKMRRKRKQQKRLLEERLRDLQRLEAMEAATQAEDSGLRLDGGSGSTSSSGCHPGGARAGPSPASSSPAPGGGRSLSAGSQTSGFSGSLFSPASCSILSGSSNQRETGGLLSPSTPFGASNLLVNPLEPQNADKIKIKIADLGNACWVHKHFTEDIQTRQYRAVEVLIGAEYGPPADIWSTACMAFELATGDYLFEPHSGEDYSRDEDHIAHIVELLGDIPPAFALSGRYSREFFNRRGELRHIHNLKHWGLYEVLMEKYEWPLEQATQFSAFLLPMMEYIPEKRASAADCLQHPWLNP
A further assay addresses MST4 (Homo sapiens, UniProt Q9P289). The assay is described as follows: biochemical.
The next assay deals with Erk3 (Homo sapiens, UniProt Q16659). The assay is described as follows: biochemical.
Chain of Erk3 (Q16659 whole entry): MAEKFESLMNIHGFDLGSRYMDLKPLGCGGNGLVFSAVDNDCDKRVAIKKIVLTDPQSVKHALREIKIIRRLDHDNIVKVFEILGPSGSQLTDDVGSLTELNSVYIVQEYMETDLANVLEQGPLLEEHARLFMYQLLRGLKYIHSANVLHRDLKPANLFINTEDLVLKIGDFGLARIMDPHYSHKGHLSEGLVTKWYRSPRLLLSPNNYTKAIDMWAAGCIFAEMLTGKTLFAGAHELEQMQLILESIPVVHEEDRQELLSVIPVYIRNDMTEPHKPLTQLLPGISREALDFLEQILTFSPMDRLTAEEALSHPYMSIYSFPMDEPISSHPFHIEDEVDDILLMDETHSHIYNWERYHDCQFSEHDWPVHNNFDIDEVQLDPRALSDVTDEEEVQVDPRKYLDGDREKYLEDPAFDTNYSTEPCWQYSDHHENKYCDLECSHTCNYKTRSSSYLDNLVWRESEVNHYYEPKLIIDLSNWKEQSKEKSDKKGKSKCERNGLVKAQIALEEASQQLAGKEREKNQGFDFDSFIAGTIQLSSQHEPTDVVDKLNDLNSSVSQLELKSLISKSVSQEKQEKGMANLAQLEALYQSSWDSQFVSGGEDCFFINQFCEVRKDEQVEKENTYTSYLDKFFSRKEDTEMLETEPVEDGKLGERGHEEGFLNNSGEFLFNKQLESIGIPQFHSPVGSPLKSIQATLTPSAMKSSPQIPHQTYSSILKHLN
Where [1] appears, read: intact mode, HEK293T, 37 °C, 2 h, tracer displacement.

Chain of ABL1 (P00519 whole entry): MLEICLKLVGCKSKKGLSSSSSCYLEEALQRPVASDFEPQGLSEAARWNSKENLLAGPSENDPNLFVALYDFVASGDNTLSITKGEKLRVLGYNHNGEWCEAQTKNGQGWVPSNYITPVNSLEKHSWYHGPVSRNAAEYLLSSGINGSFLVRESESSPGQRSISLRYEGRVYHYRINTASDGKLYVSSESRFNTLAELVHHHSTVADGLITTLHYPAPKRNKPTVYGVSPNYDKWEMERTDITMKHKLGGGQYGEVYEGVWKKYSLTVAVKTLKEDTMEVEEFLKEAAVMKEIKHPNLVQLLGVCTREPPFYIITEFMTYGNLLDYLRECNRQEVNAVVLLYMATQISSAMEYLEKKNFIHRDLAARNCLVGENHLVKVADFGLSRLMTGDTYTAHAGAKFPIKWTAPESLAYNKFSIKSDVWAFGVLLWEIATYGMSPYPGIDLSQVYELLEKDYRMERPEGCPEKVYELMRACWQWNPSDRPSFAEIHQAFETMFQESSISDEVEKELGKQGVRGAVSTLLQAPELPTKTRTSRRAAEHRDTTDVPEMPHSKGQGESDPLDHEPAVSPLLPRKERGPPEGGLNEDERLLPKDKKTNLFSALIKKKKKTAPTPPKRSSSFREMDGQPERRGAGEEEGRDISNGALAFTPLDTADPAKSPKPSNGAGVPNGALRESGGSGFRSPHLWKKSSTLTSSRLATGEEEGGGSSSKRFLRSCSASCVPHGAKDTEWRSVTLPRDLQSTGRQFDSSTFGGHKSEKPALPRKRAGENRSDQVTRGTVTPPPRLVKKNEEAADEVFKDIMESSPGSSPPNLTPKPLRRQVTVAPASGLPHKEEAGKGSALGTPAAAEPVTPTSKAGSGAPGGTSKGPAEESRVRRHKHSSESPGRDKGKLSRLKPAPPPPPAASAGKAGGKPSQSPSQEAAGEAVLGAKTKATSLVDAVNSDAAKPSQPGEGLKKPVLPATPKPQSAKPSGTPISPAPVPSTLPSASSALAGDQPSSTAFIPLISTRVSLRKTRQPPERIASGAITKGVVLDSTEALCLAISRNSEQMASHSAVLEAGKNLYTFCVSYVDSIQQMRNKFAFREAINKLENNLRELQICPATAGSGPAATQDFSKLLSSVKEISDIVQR
Chain of MST4 (Q9P289 whole entry): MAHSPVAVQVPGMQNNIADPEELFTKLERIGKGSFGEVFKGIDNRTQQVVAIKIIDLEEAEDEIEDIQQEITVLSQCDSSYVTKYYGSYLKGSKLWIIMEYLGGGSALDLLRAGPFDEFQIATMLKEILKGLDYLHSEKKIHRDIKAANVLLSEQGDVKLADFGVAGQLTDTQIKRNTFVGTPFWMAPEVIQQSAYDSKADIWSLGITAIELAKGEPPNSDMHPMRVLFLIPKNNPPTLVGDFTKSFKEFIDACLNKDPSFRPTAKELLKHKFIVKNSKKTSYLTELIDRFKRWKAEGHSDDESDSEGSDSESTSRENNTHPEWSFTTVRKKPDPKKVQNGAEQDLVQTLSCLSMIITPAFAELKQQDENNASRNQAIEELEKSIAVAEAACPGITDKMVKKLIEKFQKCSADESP

Consider `CNc1ncc2cc(-c3ccccc3Cl)c(=O)n(CCCCN)c2n1` [compound 4, 8-(4-Aminobutyl)-6-(2-chlorophenyl)-2-(methylamino)pyrido[2,3-d]pyrimidin-7(8H)-one], for which the IC50 against ABL1 is > 1 µM; against EpHA5, 0.928 ± 0.006 µM; against EpHA1, 0.012 ± 0.002 µM; on EpHA2 it was 0.21 ± 0.036 µM; against EpHB3, > 1 µM; against EpHB1, 0.078 ± 0.002 µM. The IC50 at EpHB2 was > 1 µM; against EpHA3 it was 0.313 ± 0.121 µM; against EpHA4, 0.066 ± 0.038 µM. At MSSK1 (read-out: dTm MR21 (4)), the ΔTm at 10 µM amounted to 0.2 °C.

As to `CNc1ncc2cc(-c3cc(Cl)ccc3Cl)c(=O)n(CCCCN)c2n1` [compound 8, 8-(4-Aminobutyl)-6-(2,5-dichlorophenyl)-2-(methylamino)pyrido[2,3-d]pyrimidin-7(8H)-one], the IC50 on ABL1 was > 1 µM; against EpHA5 it was > 1 µM; against EpHA1, 0.082 ± 0.003 µM; on EpHA2, > 1 µM; against EpHB3, > 1 µM; against EpHB1, 0.302 ± 0.026 µM. The IC50 is > 1 µM at EpHB2, > 1 µM at EpHA3 and 0.346 ± 0.001 µM against EpHA4.

On to `CNc1ncc2cc(-c3ccc(-c4cccc(C)n4)cc3Cl)c(=O)n(CC3OCC(N)CO3)c2n1` (centres unmarked) [compound 2, G-5555], for which the “∆Tm G-5555 (2)” value at MST4 (10 µM, binder) amounted to 6.1 degC. Moreover, at Erk3 (10 µM, binder), the “dTm G-5555 (2)” value was found to be 0.3 °C.

On to `CNc1ncc2cc(-c3cc(F)ccc3F)c(=O)n(CCCCN)c2n1` [compound 5, 8-(4-Aminobutyl)-6-(2,5-difluorophenyl)-2-(methylamino)pyrido[2,3-d]pyrimidin-7(8H)-one], for which the IC50 on EpHA1 (setting [1]) amounted to 0.145 ± 0.017 µM; at EpHB1 (setting [1]), 0.632 ± 0.01 µM. Moreover, the ΔTm at 10 µM at MST4 (read-out: ∆Tm MR22 (5)) was 1.4 °C; on MSSK1 (read-out: dTm MR22 (5)) it was -0.1 °C; on Erk3 (read-out: dTm MR22 (5)) it was 0.5 °C.
